According to ChEMBL document CHEMBL1629662, “Antimicrobial activity of prulifloxacin tested against a worldwide collection of gastroenteritis-producing pathogens, including those causing traveler's diarrhea” (2009):

Columns and labels:
[1] = Antibacterial activity against Salmonella enterica serovar Choleraesuis by broth microdilution method; assay type: functional, Salmonella enterica subsp. enterica serovar Choleraesuis
[2] = test system: Yersinia pseudotuberculosis; test: Antibacterial activity against Yersinia pseudotuberculosis assessed as percent susceptible isolates by broth microdilution method; assay type: functional
Campylobacter coli = test: Antibacterial activity against Campylobacter coli by broth microdilution method; assay type: functional
Aeromonas veronii [3] = test: Antibacterial activity against Aeromonas veronii assessed as percent susceptible isolates by broth microdilution method; assay type: functional
Vibrio vulnificus = test: Antibacterial activity against Vibrio vulnificus by broth microdilution method; assay type: functional
Aeromonas veronii [4] = test: Antibacterial activity against Aeromonas veronii by broth microdilution method; assay type: functional
Aeromonas veronii [5] = test: Antibacterial activity against Aeromonas veronii assessed as percent resistant isolates by broth microdilution method; assay type: functional
Salmonella enteritidis [6] = test: Antibacterial activity against Salmonella enterica serovar Enteritidis by broth microdilution method; assay type: functional, Salmonella enterica subsp. enterica serovar Enteritidis
Shigella boydii [7] = test: Antibacterial activity against Shigella boydii assessed as percent susceptible isolates by broth microdilution method; assay type: functional; conditions: pooled result: one value given for 3 cell lines, strains, targets or settings
Yersinia enterocolitica [8] = test: Antibacterial activity against Yersinia enterocolitica by broth microdilution method; assay type: functional
Vibrio sp. = test: Antibacterial activity against Vibrio sp. by broth microdilution method; assay type: functional
Shigella flexneri = test: Antibacterial activity against Shigella flexneri by broth microdilution method; assay type: functional
Salmonella typhi [9] = test: Antibacterial activity against Salmonella enterica serovar Typhi assessed as percent susceptible isolates by broth microdilution method; assay type: functional, Salmonella enterica subsp. enterica serovar Typhi
Aeromonas caviae [10] = test: Antibacterial activity against Aeromonas caviae assessed as percent resistant isolates by broth microdilution method; assay type: functional
Vibrio parahaemolyticus = test: Antibacterial activity against Vibrio parahaemolyticus by broth microdilution method; assay type: functional
Aeromonas caviae [11] = test: Antibacterial activity against Aeromonas caviae assessed as percent susceptible isolates by broth microdilution method; assay type: functional
Aeromonas hydrophila [12] = test: Antibacterial activity against Aeromonas hydrophila assessed as percent resistant isolates by broth microdilution method; assay type: functional
Salmonella paratyphi [13] = test: Antibacterial activity against Salmonella enterica serovar Paratyphi assessed as percent susceptible isolates by broth microdilution method; assay type: functional, Salmonella enterica subsp. enterica serovar Paratyphi A
Escherichia coli [14] = test: Antibacterial activity against Escherichia coli by broth microdilution method; assay type: functional
Escherichia coli [15] = test: Antibacterial activity against Escherichia coli assessed as percent resistant isolates by broth microdilution method; assay type: functional
Shigella sonnei [16] = test: Antibacterial activity against Shigella sonnei by broth microdilution method; assay type: functional
Aeromonas sobria [17] = test: Antibacterial activity against Aeromonas sobria by broth microdilution method; assay type: functional
Yersinia enterocolitica [18] = test: Antibacterial activity against Yersinia enterocolitica assessed as percent resistant isolates by broth microdilution method; assay type: functional
Aeromonas caviae [19] = test: Antibacterial activity against Aeromonas caviae by broth microdilution method; assay type: functional
Salmonella typhimurium [20] = test: Antibacterial activity against Salmonella enterica serovar Typhimurium assessed as percent resistant isolates by broth microdilution method; assay type: functional, Salmonella enterica subsp. enterica serovar Typhimurium; conditions: pooled result: one value given for 8 cell lines, strains, targets or settings
Campylobacter jejuni = test: Antibacterial activity against Campylobacter jejuni by broth microdilution method; assay type: functional
Salmonella enteritidis [21] = test: Antibacterial activity against Salmonella enterica serovar Enteritidis assessed as percent susceptible isolates by broth microdilution method; assay type: functional, Salmonella enterica subsp. enterica serovar Enteritidis; conditions: pooled result: one value given for 5 cell lines, strains, targets or settings
Yersinia enterocolitica [22] = test: Antibacterial activity against Yersinia enterocolitica assessed as percent susceptible isolates by broth microdilution method; assay type: functional
Aeromonas sobria [23] = test: Antibacterial activity against Aeromonas sobria assessed as percent resistant isolates by broth microdilution method; assay type: functional
[24] = Antibacterial activity against Salmonella enterica serovar Newport by broth microdilution method; assay type: functional, Salmonella enterica subsp. enterica serovar Newport
Vibrio fluvialis = test: Antibacterial activity against Vibrio fluvialis by broth microdilution method; assay type: functional
Plesiomonas shigelloides [25] = test: Antibacterial activity against Plesiomonas shigelloides assessed as percent susceptible isolates by broth microdilution method; assay type: functional
Aeromonas hydrophila [26] = test: Antibacterial activity against Aeromonas hydrophila by broth microdilution method; assay type: functional
Salmonella typhi [27] = test: Antibacterial activity against Salmonella enterica serovar Typhi by broth microdilution method; assay type: functional, Salmonella enterica subsp. enterica serovar Typhi
Aeromonas hydrophila [28] = test: Antibacterial activity against Aeromonas hydrophila assessed as percent susceptible isolates by broth microdilution method; assay type: functional
[29] = Antibacterial activity against Salmonella enterica serovar Choleraesuis assessed as percent susceptible isolates by broth microdilution method; assay type: functional, Salmonella enterica subsp. enterica serovar Choleraesuis
Shigella dysenteriae [30] = test: Antibacterial activity against Shigella dysenteriae by broth microdilution method; assay type: functional
Shigella dysenteriae [31] = test: Antibacterial activity against Shigella dysenteriae assessed as percent susceptible isolates by broth microdilution method; assay type: functional
[32] = test system: Yersinia pseudotuberculosis; test: Antibacterial activity against Yersinia pseudotuberculosis by broth microdilution method; assay type: functional
[33] = Antibacterial activity against Salmonella enterica serovar Virchow by broth microdilution method; assay type: functional, Salmonella enterica subsp. enterica serovar Virchow
Salmonella typhimurium [34] = test: Antibacterial activity against Salmonella enterica serovar Typhimurium by broth microdilution method; assay type: functional, Salmonella enterica subsp. enterica serovar Typhimurium
Aeromonas sobria [35] = test: Antibacterial activity against Aeromonas sobria assessed as percent susceptible isolates by broth microdilution method; assay type: functional
Plesiomonas shigelloides [36] = test: Antibacterial activity against Plesiomonas shigelloides assessed as percent resistant isolates by broth microdilution method; assay type: functional
[37] = Antibacterial activity against Salmonella enterica serovar Heidelberg by broth microdilution method; assay type: functional, Salmonella enterica subsp. enterica serovar Heidelberg
Vibrio cholerae = test: Antibacterial activity against Vibrio cholerae by broth microdilution method; assay type: functional
Shigella boydii [38] = test: Antibacterial activity against Shigella boydii by broth microdilution method; assay type: functional
Vibrio alginolyticus = test: Antibacterial activity against Vibrio alginolyticus by broth microdilution method; assay type: functional
Shigella sonnei [39] = test: Antibacterial activity against Shigella sonnei assessed as percent resistant isolates by broth microdilution method; assay type: functional; conditions: pooled result: one value given for 4 cell lines, strains, targets or settings
Plesiomonas shigelloides [40] = test: Antibacterial activity against Plesiomonas shigelloides by broth microdilution method; assay type: functional
Escherichia coli [41] = test: Antibacterial activity against Escherichia coli assessed as percent susceptible isolates by broth microdilution method; assay type: functional
Salmonella paratyphi [42] = test: Antibacterial activity against Salmonella enterica serovar Paratyphi by broth microdilution method; assay type: functional, Salmonella enterica subsp. enterica serovar Paratyphi A

CCn1cc(C(=O)O)c(=O)c2ccc(C)nc21 [NALIDIXIC ACID]
MIC50 [1]: ≤ 8 µg/mL | MIC90 [1]: > 32 µg/mL | Activity [2]: 93.5% | MIC50 (Campylobacter coli): ≤ 8 µg/mL | MIC90 (Campylobacter coli): > 32 µg/mL | Activity (Aeromonas veronii [3]): 81.2% | MIC (Vibrio vulnificus): ≤ 8 µg/mL | MIC50 (Vibrio vulnificus): ≤ 8 µg/mL | MIC90 (Vibrio vulnificus): ≤ 8 µg/mL | MIC50 (Aeromonas veronii [4]): ≤ 8 µg/mL | MIC90 (Aeromonas veronii [4]): > 32 µg/mL | Activity (Aeromonas veronii [5]): 18.8% | MIC50 (Salmonella enteritidis [6]): ≤ 8 µg/mL | MIC90 (Salmonella enteritidis [6]): > 32 µg/mL | Activity (Shigella boydii [7]): 97% | MIC50 (Yersinia enterocolitica [8]): ≤ 8 µg/mL | MIC90 (Yersinia enterocolitica [8]): ≤ 8 µg/mL | MIC (Vibrio sp.): ≤ 8 µg/mL | MIC50 (Vibrio sp.): ≤ 8 µg/mL | MIC90 (Vibrio sp.): ≤ 8 µg/mL | MIC50 (Shigella flexneri): ≤ 8 µg/mL | MIC90 (Shigella flexneri): ≤ 8 µg/mL | Activity (Salmonella typhi [9]): 84.2% | Activity (Aeromonas caviae [10]): 18.8% | MIC (Vibrio parahaemolyticus): ≤ 8 µg/mL | MIC50 (Vibrio parahaemolyticus): ≤ 8 µg/mL | MIC90 (Vibrio parahaemolyticus): ≤ 8 µg/mL | Activity (Aeromonas caviae [11]): 81.2% | Activity (Aeromonas hydrophila [12]): 18.8% | Activity (Salmonella paratyphi [13]): 84.2% | MIC50 (Escherichia coli [14]): ≤ 8 µg/mL | MIC90 (Escherichia coli [14]): ≤ 8 µg/mL | Activity (Escherichia coli [15]): 5% | MIC50 (Shigella sonnei [16]): ≤ 8 µg/mL | MIC90 (Shigella sonnei [16]): ≤ 8 µg/mL | MIC50 (Aeromonas sobria [17]): ≤ 8 µg/mL | MIC90 (Aeromonas sobria [17]): > 32 µg/mL | Activity (Yersinia enterocolitica [18]): 6.5% | MIC50 (Aeromonas caviae [19]): ≤ 8 µg/mL | MIC90 (Aeromonas caviae [19]): > 32 µg/mL | Activity (Salmonella typhimurium [20]): 15.8% | MIC50 (Campylobacter jejuni): ≤ 8 µg/mL | MIC90 (Campylobacter jejuni): > 32 µg/mL | Activity (Salmonella enteritidis [21]): 84.2% | Activity (Yersinia enterocolitica [22]): 93.5% | Activity (Aeromonas sobria [23]): 18.8% | MIC50 [24]: ≤ 8 µg/mL | MIC90 [24]: > 32 µg/mL | MIC (Vibrio fluvialis): ≤ 8 µg/mL | MIC50 (Vibrio fluvialis): ≤ 8 µg/mL | MIC90 (Vibrio fluvialis): ≤ 8 µg/mL | Activity (Plesiomonas shigelloides [25]): 100% | MIC50 (Aeromonas hydrophila [26]): ≤ 8 µg/mL | MIC90 (Aeromonas hydrophila [26]): > 32 µg/mL | MIC50 (Salmonella typhi [27]): ≤ 8 µg/mL | MIC90 (Salmonella typhi [27]): > 32 µg/mL | Activity (Aeromonas hydrophila [28]): 81.2% | Activity [29]: 84.2% | MIC50 (Shigella dysenteriae [30]): ≤ 8 µg/mL | MIC90 (Shigella dysenteriae [30]): ≤ 8 µg/mL | Activity (Shigella dysenteriae [31]): 97% | MIC50 [32]: ≤ 8 µg/mL | MIC90 [32]: ≤ 8 µg/mL | MIC50 [33]: ≤ 8 µg/mL | MIC90 [33]: > 32 µg/mL | MIC50 (Salmonella typhimurium [34]): ≤ 8 µg/mL | MIC90 (Salmonella typhimurium [34]): > 32 µg/mL | Activity (Aeromonas sobria [35]): 81.2% | Activity (Plesiomonas shigelloides [36]): 0% | MIC50 [37]: ≤ 8 µg/mL | MIC90 [37]: > 32 µg/mL | MIC (Vibrio cholerae): ≤ 8 µg/mL | MIC50 (Vibrio cholerae): ≤ 8 µg/mL | MIC90 (Vibrio cholerae): ≤ 8 µg/mL | MIC50 (Shigella boydii [38]): ≤ 8 µg/mL | MIC90 (Shigella boydii [38]): ≤ 8 µg/mL | MIC (Vibrio alginolyticus): ≤ 8 µg/mL | MIC50 (Vibrio alginolyticus): ≤ 8 µg/mL | MIC90 (Vibrio alginolyticus): ≤ 8 µg/mL | Activity (Shigella sonnei [39]): 3% | MIC (Plesiomonas shigelloides [40]): ≤ 8 µg/mL | MIC50 (Plesiomonas shigelloides [40]): ≤ 8 µg/mL | Activity (Escherichia coli [41]): 95% | MIC50 (Salmonella paratyphi [42]): ≤ 8 µg/mL | MIC90 (Salmonella paratyphi [42]): > 32 µg/mL
